Results taken from patent publication US7585852B2, “Cobalamine derivatives useful for diagnosis and treatment of abnormal cellular proliferation” (Solidago AG, priority 2003, dated 2009).
“Also recorded” adds a separate entry of the source.

Legend:
transcobalamin II (TCII) = assay: Gel-shift (gel filtration) assay of radiolabeled cyanocobalamin derivatives with transport protein TC II; assay type: binding, rabbit; conditions: for Binding to TCII (in words): gel shift assay; for TC II reactivity: radioactive labeled derivative; for Gel filtration peak of the derivative mixed with TCII: Superdex 75 column, free derivative elutes at 1.5 kDa
Experimental: To test the binding affinity of cobalamin (Cbl) derivatives to TCII, an in vitro test is carried out with partially purified TCII obtained from the blood of rabbits. Recombinant TCII produced with an E. coli expression system can also be used as a substrate.
TC II is purified by affinity chromatography on a cyanocobalamin-agarose matrix (Sigma), The gel (5 ml) is first washed with 200 ml 50 mM Tris/1 M NaCl, pH 8.0, afterwards with 200 ml 0.1 M glycine/0.1 M glucose/1 M NaCl pH 10, and again with 200 ml 50 mM Tris/1 M NaCl. […] Bound TC II is eluted with 20 ml 4.0 Mguanidine HCl/50 mM Tris pH 8.0, and in a second step with 7.5 M guanidine HCl/50 mM Tris pH 8.0. Most of the bound TC II elutes already with 4 M guanidine HCl. Probes are dialyzed extensively against H2O for 2 days at 4° C. Typical yields are 5-30 nmol/l which translates into 7.5-10 μg of TC II (MW: 50 kDa) per rabbit.
Transcobalamin II cDNA is expressed in E. coli strain FA113, a K12 derivative with double knock-out in trxB and gor genes, where the cytoplasm forms an oxidizing environment and allows disulfide formation. The transcobalamin II protein contains a PreScission protease site followed by an N-terminal histidine tag. The protein is isolated from soluble fractions of E. coli extracts using nickel chelating sepharose. Cyanocobalamin is removed from the transcobalamin II bound to the chelating column with 8 M urea, and the transcobalamin II is afterwards released by imidazole. In some of the preparations, the His-tag is removed by a specific protease.
(§1) The interaction of radiolabeled (^57Co, ^99mTc, ^188Re, ^111In) cyanocobalamin derivatives is measured by gel-shift assay. Radiolabeled cyanocobalamin (0.05 ng to 1 ng) is allowed to react with an excess of transport proteins for 15 min at room temperature. This mixture is applied to a gel-filtration column (Superdex75, Amersham Biosciencies) in the running buffer PBS and 0.1% Tween 20. Biologically active cyanocobalamin, which binds to transport proteins, shifts from a molecular weight of about 1.4 kDa to 40-70 kDa, depending on the transport protein. Titration of the binding capacity of the transport proteins is done with ^57Co-cyanocobalamin (ICN Biomedicals GmbH, Germany; 10 μCi/50 ng).

[1] = Biodistribution of radiolabeled cyanocobalamin derivatives in tumor bearing mice; assay type: in vivo, balb/c mice; conditions: for Tissue distribution: Blood / Tissue distribution: Kidney / Tissue distribution: Tumor / Tissue distribution: Liver: 24 h after i.v. injection of radioactive labeled derivative, tumor bearing mice (melanoma B16-F10), vitamin-free diet, figures use percent of injected radioactivity per gram of tissue; for Tissue distribution: Liver: in %ID/g; for Accumulation in tumor relative to blood / Accumulation in tumor relative to kidney and liver: from Table 1, 24 h after i.v. injection in mice
Experimental: For in vivo studies and for binding studies to the transport vectors, very high specific activity was demanded. Therefore, 100 μl of the labeled solution were injected to an analytical HPLC system to separate the hot from the cold vitamin derivative. The eluate fraction with the highest gamma activity (ca. 300 μl) was diluted with normal saline to a concentration of 10 μCi per animal before i.v. injection. Separation condition were: acetate buffer, XTerra RP8 column, gradient: 0% methanol (0 min), 30% methanol (15 min), 100% methanol (25 min) for the b and d-derivatives, and the TEAP system as described by Schibli et al. (Bioconjugate Chem. 2000, 343-351) for the other compounds.
For biodistribution studies with ^57Co-cyanocobalamin, 0.2 μCi/1 ng of the radiolabeled cyanocobalamin is mixed with 180 μl normal saline and injected i.v. in tumor bearing balb/c mice (syngeneic mouse melanoma B16-F10). After a specified time (5 min to 24 h), animals are sacrificed, the organs weighted and counted on a gamma counter. For biodistribution studies with ^99mTc-labeled cyanocobalamin, 10 μCi/0.5 ng of the radiolabelled cyanocobalamin is mixed with normal saline and used as before. For biodistribution with ^111In-labeled cyanocobalamin, 2 μCi/5 ng of the radiolabeled cyanocobalamin is mixed with normal saline and used as before. To study the effect of Vitamin B12 deficient food, the biodistribution of labeled cyanocobalamin is compared in mice fed with normal food with the biodistribution in mice fed with vitamin B12 deficient food for a period of 2 weeks.

[2] = biological target: T1, transcobalamin I (TC I; haptocorrin) (Homo sapiens, UniProt P20061); assay: Gel-shift (gel filtration) assay of radiolabeled cyanocobalamin derivatives with transport protein TC I; assay type: binding; conditions: Superdex 75 column; free derivative elutes at 1.5 kDa
T1 construct: As a source of transcobalamin I, saliva of vegetarian human subjects is used; from tissue; host or cells: human saliva (centrifuged, diluted 1:1 with PBS, sterile filtered)
T1 sequence (P20061 24-433): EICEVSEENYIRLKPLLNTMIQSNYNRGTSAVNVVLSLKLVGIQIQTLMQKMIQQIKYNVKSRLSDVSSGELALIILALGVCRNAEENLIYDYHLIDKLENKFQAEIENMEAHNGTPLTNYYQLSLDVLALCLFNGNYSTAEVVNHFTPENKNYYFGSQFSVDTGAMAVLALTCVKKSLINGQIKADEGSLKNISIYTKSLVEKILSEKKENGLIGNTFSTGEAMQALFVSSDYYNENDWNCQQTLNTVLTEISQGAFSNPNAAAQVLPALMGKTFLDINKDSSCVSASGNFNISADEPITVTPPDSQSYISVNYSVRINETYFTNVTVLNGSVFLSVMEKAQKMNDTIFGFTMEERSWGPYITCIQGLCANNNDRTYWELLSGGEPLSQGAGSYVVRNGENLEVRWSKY
Experimental: As a source of transcobalamin I, saliva of vegetarian human subjects is used. Saliva is centrifuged at 20'000 rpm 20 min at 4° C., mixed 1:1 with PBS and sterile filtered. The binding capacity of transcobalamin I is usually 10 ng/ml.
as §1

Substance	Binding to TCII (in words) (transcobalamin II (TCII))	TC II reactivity (transcobalamin II (TCII))	Tissue distribution: Blood [1] [%ID/g]	Tissue distribution: Kidney [1] [%ID/g]	Tissue distribution: Tumor [1] [%ID/g]	Tissue distribution: Liver [1]	Accumulation in tumor relative to blood [1]	Accumulation in tumor relative to kidney and liver [1]	Gel filtration peak of the derivative mixed with TCII (transcobalamin II (TCII)) [kDa]	Gel filtration peak of the derivative mixed with TCI [2] [kDa]
Cyanocobalamin-5′-phosphocolamin-His-OMe [Example 25]	bind to TCII	+ (they bind to TCII)	0.18	116	3.16	20.70				
Cyanocobalamin-b-butyl-PAMA-OEt [Example 12]	TCII non-binders	−	0.04	1.08	6.13	0.94	five times or more than in blood	at least half the amount found in the critical organs kidney and liver		
Cyanocobalamin-b-butyl-PAPAcet [Example 5]	does bind to TCII	+ (they bind to TCII)	2.3	14.1	7.9	9.40			60	44
Cyanocobalamin-b-butyl-aminocarboxymethyl-His-OMe [Example 6]	bind to TCII	+ (they bind to TCII)								
Cyanocobalamin-b-ethyl-PAMA-OEt [Example 10]	TCII non-binders	−	0.1	1.36	0.73	1.45	five times or more than in blood	at least half the amount found in the critical organs kidney and liver		
Cyanocobalamin-b-ethyl-Triamine [Example 22]	TCII non-binders	−	0.25	3.54	2.9	3.90	five times or more than in blood	at least half the amount found in the critical organs kidney and liver		
Cyanocobalamin-b-hexyl-PAMA-OEt [Example 14]	bind to TCII	+ (they bind to TCII)	1.2	40	3	8.00				
Cyanocobalamin-b-propyl-His-OMe [Example 20]	bind to TCII	+ (they bind to TCII)	2.1	19.9	9.2	21.06				
Cyanocobalamin-b-propyl-PAMA-OEt [Example 11]	essentially a TCII-non binder; also recorded: TCII non-binders	−	0.09	0.39	1.61	0.44	five times or more than in blood	at least half the amount found in the critical organs kidney and liver	1.5	44
Cyanocobalamin-c-butyl-PAPAcet [Example 8]	bind to TCII	+ (they bind to TCII)	2.2	16.5	3.6	8.10				
Cyanocobalamin-d-propyl-PAMA-OEt [Example 18]	TCII non-binders	−	0.06	10.4	6.8	3.90	five times or more than in blood	at least half the amount found in the critical organs kidney and liver		
